From the supplement of paper PMC10307832 come the findings set out here.

Common to all, as to test: relative viability (nuclei count vs DMSO), 5 days (fraction); higher = more cells survive
Compound in the test “Crizotinib + Linsitinib”: C[C@@H](Oc1cc(-c2cnn(C3CCNCC3)c2)cnc1N)c1c(Cl)ccc(F)c1Cl [Crizotinib] + C[C@]1(O)C[C@@H](c2nc(-c3ccc4ccc(-c5ccccc5)nc4c3)c3c(N)nccn32)C1 [Linsitinib] (partner 1 µM)
Put shortly:
(§1)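 A single step with final 0.05% Triton X-100, 1% formaldehyde and 1 ug/ml Hoechst fixed the cells and stained nuclei 5 days after treatment. Lung cancer cell lines in 1536-well plates had been treated by pin tool the day after seeding with one drug alone or a fixed anchor-drug dose plus five library-drug doses (not always all listed) in √10 steps, and nuclei were counted on 4× images. Relative viability is the ratio of nuclei in treated wells to nuclei in vehicle wells, taken as the median of duplicate plates.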

Compound in the test “Olaparib + Alpelisib”: O=C(c1cc(Cc2n[nH]c(=O)c3ccccc23)ccc1F)N1CCN(C(=O)C2CC2)CC1 [Olaparib] + Cc1nc(NC(=O)N2CCC[C@H]2C(N)=O)sc1-c1ccnc(C(C)(C)C(F)(F)F)c1 [Alpelisib] (partner 2 µM)
In short, it runs like this:
as §1

Compound in the test “Olaparib + Foretinib”: O=C(c1cc(Cc2n[nH]c(=O)c3ccccc23)ccc1F)N1CCN(C(=O)C2CC2)CC1 [Olaparib] + COc1cc2c(Oc3ccc(NC(=O)C4(C(=O)Nc5ccc(F)cc5)CC4)cc3F)ccnc2cc1OCCCN1CCOCC1 [Foretinib] (partner 0.25 µM)
Put shortly: as §1

Compound in the test “Olaparib + Decitabine”: O=C(c1cc(Cc2n[nH]c(=O)c3ccccc23)ccc1F)N1CCN(C(=O)C2CC2)CC1 [Olaparib] + Nc1ncn([C@H]2C[C@H](O)[C@@H](CO)O2)c(=O)n1 [Decitabine] (partner 2 µM)
In short, it runs like this: as §1

Compound in the test “Olaparib + AZD7762”: O=C(c1cc(Cc2n[nH]c(=O)c3ccccc23)ccc1F)N1CCN(C(=O)C2CC2)CC1 [Olaparib] + NC(=O)Nc1cc(-c2cccc(F)c2)sc1C(=O)N[C@H]1CCCNC1 [AZD7762] (partner 0.2 µM)
Put shortly:
as §1

As for NCI-H1793, the relative viability is 1.01 in the test with Crizotinib + Linsitinib (first compound 0.01 µM); 0.922 in the test with Crizotinib + Linsitinib (first compound 0.03162 µM); 0.837 with Crizotinib + Linsitinib (first compound 0.1 µM); 0.87 in the test with Crizotinib + Linsitinib (first compound 1 µM); 0.683 with Olaparib + Alpelisib (first compound 0.08 µM); 0.664 with Olaparib + Alpelisib (first compound 0.253 µM). For the same cell line, the relative viability with Olaparib + Alpelisib (first compound 2.53 µM) is 0.768; with Olaparib + Alpelisib (first compound 8 µM) it was 0.601; with Olaparib + Foretinib (first compound 0.08 µM), 0.684; with Olaparib + Foretinib (first compound 0.253 µM), 0.624; with Olaparib + Foretinib (first compound 2.53 µM) it was 0.648; with Olaparib + Foretinib (first compound 8 µM) it was 0.706. In addition, the relative viability with Olaparib + Decitabine (first compound 0.08 µM) came to 0.338; with Olaparib + Decitabine (first compound 0.253 µM) it was 0.417; in the test with Olaparib + Decitabine (first compound 2.53 µM), 0.337; with Olaparib + Decitabine (first compound 8 µM) it was 0.326; with Olaparib + AZD7762 (first compound 0.08 µM), 0.747; with Olaparib + AZD7762 (first compound 0.253 µM), 0.438. Further, the relative viability in the test with Olaparib + AZD7762 (first compound 2.53 µM) was found to be 0.488; in the test with Olaparib + AZD7762 (first compound 8 µM), 0.283.
